Reference: paper PMC12175220, “Eco-Friendly Solvents for Bioactives: Solubilization of Hydroxycinnamic Acids in Glycerol-Derived Ethers” (ACS Sustainable Chemistry & Engineering, 2025)
Values after ≈ are worked out from the molar mass of the structure shown.

Key:
[1] = Solubility of hydroxycinnamic acids in pure solvents (orbital shaker 72 h, HPLC); type: physicochemical; conditions: for Increase of solubility in EGMME with respect to 101: EGMME vs 101; for solubility at 72 h: organic solvent or mixture, thermodynamic from solid
Protocol: (§1) Amber vials were used to protect the samples from light. To ensure reliability, all of the experiments were performed in triplicate. The samples were shaken in a biological orbital shaker at 100 rpm for 72 h at 25 °C.
Before the samples were measured, they must be sonicated to avoid the formation of dimers and ensure the uniformity of the peaks.
(§2) The column used for the quantification was a C18 Phenomenex Luna ([…] × 5 μm).
Calibration curves were generated using solutions varying in the concentrations of the three studied acids within the HPLC detection range (0–0.006 mg). These solutions were sonicated to ensure uniformity of the peaks and then injected into the HPLC. The linearity of the curves was evaluated by linear regression analysis. Details of the calibrations are gathered in the Supporting Information (Figures S27–S29).
Following this period, the solution was checked for saturation and filtered. The filtered solution was then immediately diluted for hydroxycinnamic acid quantification by HPLC.

[2] = physchem; conditions: for solubility at 72 h: 25 °C, thermodynamic from solid, Solubility (mg/mL)
Protocol: as §1, §2

[3] = comparison solvents; cited from earlier work
[4] = pure 1,3-propylene glycol (PG), 25 °C, solvent PG (1,3-propylene glycol), 298 K, read-out: Solubility
[5] = pure ethylene glycol (EG), 25 °C, solvent EG (ethylene glycol), 298 K, read-out: Solubility
[6] = pure solvent 3F00, 25 °C, solvent 3F00, Tables S-1 to S-3, read-out: Solubility
[7] = pure solvent 3i00, 25 °C, solvent 3i00, Tables S-1 to S-3, read-out: Solubility
[8] = pure solvent 3i03i, 25 °C, solvent 3i03i, 298 K, read-out: Solubility
[9] = pure solvent 100, 25 °C, solvent 100, Tables S-1 to S-3, read-out: Solubility
[10] = pure solvent 101, 25 °C, solvent 101, Tables S-1 to S-3, read-out: Solubility
[11] = pure solvent 111, 25 °C, solvent 111, Tables S-1 to S-3, read-out: Solubility
[12] = pure solvent 111 triether, 25 °C, solvent 111 triether, 298 K, read-out: Solubility
[13] = pure solvent 200, 25 °C, solvent 200, Tables S-1 to S-3, read-out: Solubility
[14] = pure solvent 202, 25 °C, solvent 202, 298 K, read-out: Solubility
[15] = pure solvent 202, 25 °C, solvent 202, Tables S-1 to S-3, read-out: Solubility
[16] = pure solvent 300, 25 °C, solvent 300, Tables S-1 to S-3, read-out: Solubility
[17] = pure solvent 400, 25 °C, solvent 400, Tables S-1 to S-3, read-out: Solubility
[18] = pure solvent 400, 25 °C, solvent 400, Tables S-13 to S-15, read-out: Experimental solubility
[19] = pure solvent 404, 25 °C, solvent 404, Tables S-1 to S-3, read-out: Solubility
[20] = pure solvent EG, 25 °C, solvent EG, Tables S-1 to S-3, read-out: Solubility
[21] = pure solvent EGDME, 25 °C, solvent EGDME, Tables S-1 to S-3, read-out: Solubility
[22] = pure solvent EGMME, 25 °C, solvent EGMME, Tables S-1 to S-3, read-out: Solubility
[23] = pure solvent PG, 25 °C, solvent PG, Tables S-1 to S-3, read-out: Solubility

Increase of solubility in EGMME with respect to 101 [1] [%]	solubility at 72 h [1, 4] [mg/mL]	solubility at 72 h [1, 5] [mg/mL]	solubility at 72 h [1, 6] [mg/mL]	solubility at 72 h [1, 7] [mg/mL]	solubility at 72 h [1, 8] [mg/mL]	solubility at 72 h [1, 9] [mg/mL]	solubility at 72 h [1, 10] [mg/mL]	solubility at 72 h [1, 11] [mg/mL]	solubility at 72 h [1, 12] [mg/mL]	solubility at 72 h [1, 13] [mg/mL]	solubility at 72 h [1, 14] [mg/mL]	solubility at 72 h [1, 15] [mg/mL]	solubility at 72 h [1, 16] [mg/mL]	solubility at 72 h [1, 17] [mg/mL]	solubility at 72 h [1, 18] [mg/mL]	solubility at 72 h [1, 19] [mg/mL]	solubility at 72 h [1, 20] [mg/mL]	solubility at 72 h [1, 21] [mg/mL]	solubility at 72 h [1, 22] [mg/mL]	Structure (SMILES)	other results
45	91.3 (≈ 556 mM)	103 (≈ 627 mM)	17.2 (≈ 105 mM)	112 (≈ 685 mM)	85.7 (≈ 522 mM)	141 (≈ 861 mM)	176 (≈ 1070 mM)	110 (≈ 668 mM)	109 (≈ 664 mM)	137 (≈ 832 mM)	122 (≈ 743 mM)	120 (≈ 731 mM)	113 (≈ 687 mM)	95.1 (≈ 579 mM)	93.1 (≈ 567 mM)	49.3 (≈ 300 mM)	103 (≈ 627 mM)	161 (≈ 980 mM)	256 (≈ 1560 mM)	O=C(O)/C=C/c1ccc(O)cc1 [Coumaric acid, coumaric acid]	solubility at 72 h ([1]; pure solvent 3F00, 25 °C, solvent 3F00, 298 K, read-out: Solubility): 19.6 mg/mL (≈ 119 mM); solubility at 72 h ([1]; pure solvent 3F03F, 25 °C, solvent 3F03F, 298 K, read-out: Solubility): 2 mg/mL (≈ 12.2 mM); solubility at 72 h ([1]; pure solvent 3F03F, 25 °C, solvent 3F03F, Tables S-1 to S-3, read-out: Solubility): 2.7 mg/mL (≈ 16.4 mM); solubility at 72 h ([1]; pure solvent 100, 25 °C, solvent 100, Tables S-13 to S-15, read-out: Experimental solubility): 142 mg/mL (≈ 863 mM); solubility at 72 h ([1]; pure solvent 101, 25 °C, solvent 101, 298 K, read-out: Solubility): 176 mg/mL (≈ 1070 mM); solubility at 72 h ([1]; pure solvent 101, 25 °C, solvent 101, Tables S-13 to S-15, read-out: Experimental solubility): 177 mg/mL (≈ 1080 mM); solubility at 72 h ([1]; pure solvent 303, 25 °C, solvent 303, 298 K, read-out: Solubility): 74.6 mg/mL (≈ 454 mM); solubility at 72 h [1, 23]: 91.1 mg/mL (≈ 555 mM); Solubility ([1]; solvent EG (ethylene glycol), 298 K): 102 mg/mL (≈ 621 mM); solubility at 72 h [2]: 203 mg/mL (≈ 1240 mM); solubility at 72 h ([2]; water): 0.4 mg/mL (≈ 2.44 mM); Increase of solubility in the water/101 mixture compared to the solubility in water ([2]; 72 h): 500 fold
21	36.5 (≈ 203 mM)	55.8 (≈ 310 mM)	5.5 (≈ 30.5 mM)	45.8 (≈ 254 mM)	25.2 (≈ 140 mM)	75.7 (≈ 420 mM)	81.1 (≈ 450 mM)	32.5 (≈ 180 mM)	32.5 (≈ 180 mM)	61.9 (≈ 344 mM)	34 (≈ 189 mM)	12 (≈ 66.6 mM)	44.5 (≈ 247 mM)	33.5 (≈ 186 mM)	33.4 (≈ 185 mM)	11.1 (≈ 61.6 mM)	42 (≈ 233 mM)	32.5 (≈ 180 mM)	98.9 (≈ 549 mM)	O=C(O)/C=C/c1ccc(O)c(O)c1 [Caffeic acid]	solubility at 72 h ([1]; pure ethylene glycol dimethyl ether (EGDME), 25 °C, solvent EGDME (ethylene glycol dimethyl ether), 298 K, read-out: Solubility): 32.5 mg/mL (≈ 180 mM); solubility at 72 h ([1]; pure solvent 3i03i, 25 °C, solvent 3i03i, Tables S-1 to S-3, read-out: Solubility): 25.1 mg/mL (≈ 139 mM); solubility at 72 h ([1]; pure solvent 111, 25 °C, solvent 111, Tables S-13 to S-15, read-out: Experimental solubility): 32.5 mg/mL (≈ 180 mM); solubility at 72 h ([1]; pure solvent 303, 25 °C, solvent 303, Tables S-1 to S-3, read-out: Solubility): 17.2 mg/mL (≈ 95.5 mM); solubility at 72 h [1, 23]: 27.4 mg/mL (≈ 152 mM); solubility at 72 h [2]: 85 mg/mL (≈ 472 mM); solubility at 72 h ([2]; water): 0.8 mg/mL (≈ 4.44 mM); Increase in the solubility compared to pure 100 ([2]; 72 h): 20%; Increase of solubility in the water/101 mixture compared to the solubility in water ([2]; 72 h): 140 fold
–	–	–	–	–	–	–	–	–	–	–	–	–	–	–	–	–	–	–	–	OCC(O)CO [glycerol]	Viscosity [3]: 1200 cP
